Activity calls are given as the source filed them.
Columns and labels:
NADPH oxidase 1 = biological target: T1, NADPH oxidase 1 (Homo sapiens, UniProt Q9Y5S8); assay type: functional, cell-based;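 note: Cell-based assay with luminescence read-out, IC50 derived from inhibitor dose-response curves; intracellular ROS from endogenous NOX1 in intact HT29 colon cancer cells; potency of inhibitors that lower the ROS luminescence signal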
T1 sequence (Q9Y5S8 whole entry): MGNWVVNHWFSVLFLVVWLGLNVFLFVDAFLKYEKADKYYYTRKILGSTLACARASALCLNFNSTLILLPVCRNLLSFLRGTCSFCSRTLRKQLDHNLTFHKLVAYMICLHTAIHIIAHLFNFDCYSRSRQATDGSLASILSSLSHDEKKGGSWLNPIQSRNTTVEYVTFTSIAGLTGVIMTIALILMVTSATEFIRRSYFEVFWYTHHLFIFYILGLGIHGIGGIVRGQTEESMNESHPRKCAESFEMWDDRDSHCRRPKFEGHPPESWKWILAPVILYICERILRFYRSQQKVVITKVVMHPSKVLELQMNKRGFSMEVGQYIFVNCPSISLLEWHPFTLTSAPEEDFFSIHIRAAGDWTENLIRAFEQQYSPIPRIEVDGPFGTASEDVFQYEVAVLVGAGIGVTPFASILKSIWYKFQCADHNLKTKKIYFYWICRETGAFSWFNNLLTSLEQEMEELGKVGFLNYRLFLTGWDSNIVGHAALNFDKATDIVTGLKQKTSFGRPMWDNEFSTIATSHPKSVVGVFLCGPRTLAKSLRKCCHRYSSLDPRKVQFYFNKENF

Mucolipin-3 = Mucolipin-3 (Homo sapiens, UniProt Q8TDD5); test: Dose response cell-based high-throughput screening assay for agonists of the transient receptor potential channel ML3 (TRPML3). [Related pubchem assays: 1526, 1424, 1448 ]; assay type: functional
Ion channel NompC = Ion channel NompC (Danio rerio, UniProt Q7T1G6); test: Fluorescence counterscreen assay for TRPML3 agonists: dose response cell-based high-throughput screening assay to identify agonists of the transient receptor potential channel N1 (TRPN1). [Related pubchem assays: 1526, 1424, 1448 ]; assay type: functional
H4 = test: Luminescence Cell-Based Dose Response HTS to Identify Activators of 5'UTR Stem-Loop Driven Prion Protein mRNA Translation in H4 Neuroglioblastoma Cells. [Related pubchem assays: 1829 (Project Summary), 1814 (Primary HTS)]; assay type: functional; conditions: Homo sapiens
Cytochrome P450 2D6 = Cytochrome P450 2D6 (Homo sapiens, UniProt P10635);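 note: CYP2D6 member of a cytochrome P450 panel assay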
Cytochrome P450 2D6, sequence (P10635 whole entry): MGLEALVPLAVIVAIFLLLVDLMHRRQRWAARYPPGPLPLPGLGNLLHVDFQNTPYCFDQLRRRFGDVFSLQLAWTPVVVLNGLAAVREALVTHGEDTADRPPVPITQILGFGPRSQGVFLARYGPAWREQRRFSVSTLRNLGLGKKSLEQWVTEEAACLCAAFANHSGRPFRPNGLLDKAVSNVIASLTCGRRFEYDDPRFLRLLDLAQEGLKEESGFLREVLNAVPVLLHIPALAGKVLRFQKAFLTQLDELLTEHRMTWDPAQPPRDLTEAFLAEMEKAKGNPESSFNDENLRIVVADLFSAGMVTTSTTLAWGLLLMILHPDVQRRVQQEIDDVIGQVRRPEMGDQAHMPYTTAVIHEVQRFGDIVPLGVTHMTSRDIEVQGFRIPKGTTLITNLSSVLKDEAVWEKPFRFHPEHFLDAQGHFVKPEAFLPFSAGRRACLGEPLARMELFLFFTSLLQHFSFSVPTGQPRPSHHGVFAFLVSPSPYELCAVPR

[1] = Luminescence Cell-Based Dose Response to Identify Activators of 5'UTR Stem-Loop Driven Prion Protein mRNA Translation in H4-C Neuroglioblastoma Cells. [Related pubchem assays: 1829 (Project Summary), 1814 (Primary HTS)]; assay type: functional
[2] = Luminescence Cell-Based Dose Response HTS to Identify Activators of Luciferase Translation or Activity in H4 […] Cells. [Related pubchem assays: 1829 (Project Summary), 1814 (Primary HTS)]; assay type: functional
[3] = Luminescence Cell-Based Dose Response to Identify Activators of Luciferase Translation or Activity in H4-C Neuroglioblastoma Cells. [Related pubchem assays: 1829 (Project Summary), 1814 (Primary HTS)]; assay type: functional
[4] = Luminescence Cell-Based Dose Confirmation to Identify Activators of 5'UTR Stem-Loop Driven Alpha-Synuclein mRNA Translation in H4 Neuroglioblastoma Cells. [Related pubchem assays: 1829 (Project Summary), 1814 (Primary HTS)]; assay type: functional
Cytochrome P450 2C19 = Cytochrome P450 2C19 (Homo sapiens, UniProt P33261); test: Cytochrome panel assay with activity outcomes. Panel member name: p450-cyp2c19 Compounds with AC50 equal or less than 10 uM are considered active; assay type: functional; conditions: read-out: AC50
Cytochrome P450 2C19, sequence (P33261 whole entry): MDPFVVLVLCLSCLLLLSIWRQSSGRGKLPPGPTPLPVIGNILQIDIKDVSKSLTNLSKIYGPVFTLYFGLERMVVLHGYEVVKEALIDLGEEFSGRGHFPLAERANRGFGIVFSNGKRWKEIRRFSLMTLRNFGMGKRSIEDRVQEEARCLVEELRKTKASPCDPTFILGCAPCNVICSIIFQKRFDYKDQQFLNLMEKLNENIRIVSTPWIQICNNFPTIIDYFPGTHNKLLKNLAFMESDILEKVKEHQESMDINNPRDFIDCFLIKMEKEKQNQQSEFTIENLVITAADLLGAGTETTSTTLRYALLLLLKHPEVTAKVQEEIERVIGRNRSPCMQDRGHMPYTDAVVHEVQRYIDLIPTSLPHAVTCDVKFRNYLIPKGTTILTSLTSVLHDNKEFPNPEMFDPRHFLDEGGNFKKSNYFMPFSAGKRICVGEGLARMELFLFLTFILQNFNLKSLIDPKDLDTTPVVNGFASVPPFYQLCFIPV

[5] = biological target: T2, Polyadenylate-binding protein 1 (Homo sapiens, UniProt P11940); test: PABP1 MLLE–PAM2 binding inhibitor potency, dose response, biochemical, fluorescence polarization, FITC-PAM2 peptide (AID 602259); assay type: functional; conditions: read-out: IC50_Mean
T2 sequence (P11940 whole entry): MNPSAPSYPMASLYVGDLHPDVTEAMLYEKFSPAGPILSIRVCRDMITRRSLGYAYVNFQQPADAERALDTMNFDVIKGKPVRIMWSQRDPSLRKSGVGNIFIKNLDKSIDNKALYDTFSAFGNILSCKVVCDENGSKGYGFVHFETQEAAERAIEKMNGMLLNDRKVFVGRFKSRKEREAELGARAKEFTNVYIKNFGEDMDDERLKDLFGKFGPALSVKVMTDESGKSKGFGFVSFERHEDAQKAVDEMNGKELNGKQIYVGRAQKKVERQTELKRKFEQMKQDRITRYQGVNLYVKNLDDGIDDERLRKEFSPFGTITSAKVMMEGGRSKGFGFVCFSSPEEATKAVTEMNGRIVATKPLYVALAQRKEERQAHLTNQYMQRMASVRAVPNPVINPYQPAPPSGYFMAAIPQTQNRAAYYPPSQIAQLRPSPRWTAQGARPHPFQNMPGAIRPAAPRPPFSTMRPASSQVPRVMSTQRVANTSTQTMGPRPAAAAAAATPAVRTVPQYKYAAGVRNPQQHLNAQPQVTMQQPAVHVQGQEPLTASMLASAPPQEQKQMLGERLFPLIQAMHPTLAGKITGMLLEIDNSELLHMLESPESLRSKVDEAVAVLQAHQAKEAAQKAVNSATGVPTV

[6] = biological target: Voltage-gated inwardly rectifying potassium channel KCNH2 (Homo sapiens, UniProt Q12809); test: hERG protection from proarrhythmic block, potency, dose response, cell-based, thallium flux (AID 2121); assay type: ADME
Voltage-gated inwardly rectifying potassium channel KCNH2, sequence (Q12809 whole entry): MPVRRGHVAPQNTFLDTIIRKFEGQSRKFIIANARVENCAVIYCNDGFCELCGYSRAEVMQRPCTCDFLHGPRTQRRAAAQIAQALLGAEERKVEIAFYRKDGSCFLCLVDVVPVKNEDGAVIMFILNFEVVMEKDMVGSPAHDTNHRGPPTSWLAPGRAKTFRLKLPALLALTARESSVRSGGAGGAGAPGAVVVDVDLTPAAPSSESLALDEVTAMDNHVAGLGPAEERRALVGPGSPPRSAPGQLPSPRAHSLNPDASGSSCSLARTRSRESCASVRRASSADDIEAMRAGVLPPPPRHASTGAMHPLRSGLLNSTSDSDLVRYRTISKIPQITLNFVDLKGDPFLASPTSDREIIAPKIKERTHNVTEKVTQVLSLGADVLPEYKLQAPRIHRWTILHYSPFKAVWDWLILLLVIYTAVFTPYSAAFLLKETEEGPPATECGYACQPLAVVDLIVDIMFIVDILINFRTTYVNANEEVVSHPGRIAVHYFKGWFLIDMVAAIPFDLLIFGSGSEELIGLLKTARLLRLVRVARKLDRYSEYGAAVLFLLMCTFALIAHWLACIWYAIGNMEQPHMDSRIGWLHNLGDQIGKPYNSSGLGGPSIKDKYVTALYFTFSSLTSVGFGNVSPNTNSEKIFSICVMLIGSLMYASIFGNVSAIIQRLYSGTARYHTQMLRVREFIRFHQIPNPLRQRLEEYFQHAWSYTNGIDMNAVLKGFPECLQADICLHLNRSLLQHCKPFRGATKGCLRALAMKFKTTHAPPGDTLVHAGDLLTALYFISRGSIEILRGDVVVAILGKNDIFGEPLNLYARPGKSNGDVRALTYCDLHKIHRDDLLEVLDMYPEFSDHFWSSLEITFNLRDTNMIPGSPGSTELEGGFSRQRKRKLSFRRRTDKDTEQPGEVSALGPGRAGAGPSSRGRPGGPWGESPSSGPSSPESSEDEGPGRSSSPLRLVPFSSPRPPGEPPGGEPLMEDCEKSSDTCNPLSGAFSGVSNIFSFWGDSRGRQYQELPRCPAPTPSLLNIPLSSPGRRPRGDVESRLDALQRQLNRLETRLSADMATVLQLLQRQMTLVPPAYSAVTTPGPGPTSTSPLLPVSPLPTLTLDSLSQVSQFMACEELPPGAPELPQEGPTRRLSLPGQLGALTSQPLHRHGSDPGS

[7] = biological target: T2, Polyadenylate-binding protein 1; test: PABP1 MLLE–PAM2 interaction inhibitors, dose response, miRNA deadenylation inhibitor project, biochemical, fluorescence polarization, Cy5-PAM2 peptide, secondary (AID 602260); assay type: functional; conditions: read-out: IC50_Mean
[8] = biological target: T3, Sphingosine 1-phosphate receptor 4 (Homo sapiens, UniProt O95977); test: Fluorescence dose response cell-based high throughput screening assay for antagonists of the Sphingosine 1-Phosphate Receptor 4 (S1P4). [Related pubchem assays: 1524 (Confirmation in triplicates.), 1510 (Primary screen.)]; assay type: functional
T3 sequence (O95977 whole entry): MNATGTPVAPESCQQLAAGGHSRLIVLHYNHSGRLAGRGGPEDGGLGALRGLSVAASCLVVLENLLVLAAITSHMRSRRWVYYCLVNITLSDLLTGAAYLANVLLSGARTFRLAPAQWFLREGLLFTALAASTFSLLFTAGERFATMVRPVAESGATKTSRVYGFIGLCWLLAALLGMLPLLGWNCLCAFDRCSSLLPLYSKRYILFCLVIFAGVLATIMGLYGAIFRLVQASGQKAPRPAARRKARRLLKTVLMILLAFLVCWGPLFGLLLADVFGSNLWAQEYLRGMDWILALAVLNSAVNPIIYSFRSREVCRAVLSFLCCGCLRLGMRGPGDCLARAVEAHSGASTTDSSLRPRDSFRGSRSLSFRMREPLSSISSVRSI

[9] = biological target: Sphingosine 1-phosphate receptor 1 (Homo sapiens, UniProt P21453); assay type: functional;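 note: Tango beta-arrestin reporter U2OS cells stimulated with S1P near its EC80; inhibitor potency meaning antagonism of receptor activation by the natural agonist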
Sphingosine 1-phosphate receptor 1, sequence (P21453 whole entry): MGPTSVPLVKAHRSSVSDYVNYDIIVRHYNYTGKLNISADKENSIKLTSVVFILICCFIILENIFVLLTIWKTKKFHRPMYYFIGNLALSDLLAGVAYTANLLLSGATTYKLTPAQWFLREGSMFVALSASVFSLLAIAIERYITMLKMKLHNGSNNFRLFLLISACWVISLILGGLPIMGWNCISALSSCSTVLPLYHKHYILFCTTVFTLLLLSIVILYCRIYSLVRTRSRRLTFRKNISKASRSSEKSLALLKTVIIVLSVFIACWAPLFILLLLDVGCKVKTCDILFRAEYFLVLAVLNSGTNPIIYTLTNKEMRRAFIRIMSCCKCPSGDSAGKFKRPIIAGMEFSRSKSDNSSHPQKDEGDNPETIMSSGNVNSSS

[10] = biological target: T3, Sphingosine 1-phosphate receptor 4; test: Late stage fluorescence dose response cell-based screening assay for antagonists of the Sphingosine 1-Phosphate Receptor 4 (S1P4). [Related pubchem assays: 1524 (Confirmation screen (S1P4 antagonists).), 1510 (Primary screen (S1P4 antagonists).), 1853 (Summary AID (S1P4 antagonists).), 1692 (Dose response screen (S1P4 antagonists).)]; assay type: functional
[11] = growth suppression of PTEN-null colon cells, dose response, cell-based, HCT116 PTEN knockout (AID 1047); assay type: functional;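 note: HCT116 colon tumor cells with PTEN knocked out; cells exposed to compound for 60 hours before readout; potency for loss of cell viability measured by luminescence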
[12] = growth suppression of beta-catenin-knockout colon cells, dose response, cell-based, HCT116, human colon tumor (AID 1045); assay type: functional;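 note: HCT116 colon tumor cells with beta catenin knocked out; cells exposed to compound for 60 hours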
Caspase-6 = biological target: T4, Caspase-6 (Homo sapiens, UniProt P55212); test: human caspase-6 inhibitors, dose response, biochemical, VEID-R110 fluorescence, cherry-pick (AID 720632)
T4 sequence (P55212 whole entry): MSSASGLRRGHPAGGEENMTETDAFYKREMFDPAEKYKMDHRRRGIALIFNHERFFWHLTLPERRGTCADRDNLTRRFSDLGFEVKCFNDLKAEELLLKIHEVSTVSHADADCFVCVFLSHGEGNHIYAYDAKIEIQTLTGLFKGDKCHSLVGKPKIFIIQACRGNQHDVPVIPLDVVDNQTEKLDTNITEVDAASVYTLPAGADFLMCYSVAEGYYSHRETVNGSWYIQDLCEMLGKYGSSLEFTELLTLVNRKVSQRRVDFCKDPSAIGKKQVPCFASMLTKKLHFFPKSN

Bcl-2-like protein 1 = Bcl-2-like protein 1 (Homo sapiens, UniProt Q07817); test: BCL-XL inhibitors, dose response, selectivity assay for MCL1 inhibitor project, biochemical, fluorescence polarization, 1536-well (AID 2218)
Bcl-2-like protein 1, sequence (Q07817 whole entry): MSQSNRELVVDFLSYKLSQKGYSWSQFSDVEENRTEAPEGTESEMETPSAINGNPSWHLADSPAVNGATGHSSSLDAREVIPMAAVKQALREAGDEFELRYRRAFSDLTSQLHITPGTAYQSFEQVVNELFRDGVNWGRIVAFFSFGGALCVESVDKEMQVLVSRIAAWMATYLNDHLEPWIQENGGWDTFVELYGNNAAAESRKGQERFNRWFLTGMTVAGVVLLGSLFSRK

[13] = biological target: Induced myeloid leukemia cell differentiation protein Mcl-1 (Homo sapiens, UniProt Q07820); test: MCL1-BIM BH3 interaction inhibitors, dose response, biochemical, fluorescence polarization, BIM-BH3 peptide, 1536-well (AID 2217)
Induced myeloid leukemia cell differentiation protein Mcl-1, sequence (Q07820 whole entry): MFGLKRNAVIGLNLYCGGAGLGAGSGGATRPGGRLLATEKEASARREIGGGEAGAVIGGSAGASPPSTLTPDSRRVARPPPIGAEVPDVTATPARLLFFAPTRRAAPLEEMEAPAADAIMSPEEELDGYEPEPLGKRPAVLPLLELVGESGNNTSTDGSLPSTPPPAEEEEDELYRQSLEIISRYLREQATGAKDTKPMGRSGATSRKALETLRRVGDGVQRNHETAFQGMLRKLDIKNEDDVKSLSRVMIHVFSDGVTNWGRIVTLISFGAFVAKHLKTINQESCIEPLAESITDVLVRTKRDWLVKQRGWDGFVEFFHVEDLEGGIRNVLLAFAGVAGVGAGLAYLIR

Albumin = Albumin (Bos taurus, UniProt P02769); test: Counterscreen for inhibitors of T-cell receptor (TCR)-CD3 interaction: Fluorescence-based biochemical high throughput dose response assay to identify inhibitors of T-cell receptor (TCR)-CD3 interaction using a TAMRA-labeled BSA probe.; assay type: functional
Albumin, sequence (P02769 whole entry): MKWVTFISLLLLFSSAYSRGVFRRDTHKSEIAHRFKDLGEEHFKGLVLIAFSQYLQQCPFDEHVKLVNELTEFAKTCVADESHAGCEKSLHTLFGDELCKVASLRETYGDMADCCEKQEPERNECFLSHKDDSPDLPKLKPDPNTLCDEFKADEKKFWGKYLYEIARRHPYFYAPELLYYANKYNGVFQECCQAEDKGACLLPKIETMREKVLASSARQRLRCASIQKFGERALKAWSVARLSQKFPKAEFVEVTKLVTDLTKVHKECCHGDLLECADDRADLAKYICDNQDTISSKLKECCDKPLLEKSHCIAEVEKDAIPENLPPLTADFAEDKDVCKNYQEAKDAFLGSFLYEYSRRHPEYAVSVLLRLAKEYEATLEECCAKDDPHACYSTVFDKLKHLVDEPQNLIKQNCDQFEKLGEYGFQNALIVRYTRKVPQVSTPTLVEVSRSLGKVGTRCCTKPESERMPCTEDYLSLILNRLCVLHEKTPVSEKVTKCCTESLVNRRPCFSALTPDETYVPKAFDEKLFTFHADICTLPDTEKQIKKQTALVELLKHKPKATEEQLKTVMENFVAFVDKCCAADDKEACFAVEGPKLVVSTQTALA

[14] = Luminescence Cell-Based Dose Confirmation HTS to Identify Inhibitors of Polyadenylation.; assay type: functional

Question: With `OCCN1CCN(CCCN2c3ccccc3Sc3ccc(C(F)(F)F)cc32)CC1` [FLUPHENAZINE] as the compound, how does the IC50 (NADPH oxidase 1) read?
Answer: Its IC50 is > 17 µM (not active).

Question: With `CCN(CC)C(=S)SCC(=O)NC12CC3CC(CC(C3)C1)C2` as the compound, how does the EC50 (Mucolipin-3) read?
Answer: Its EC50 is 14.7 µM (not active).

Question: And the EC50 (Ion channel NompC)?
Answer: Its EC50 is > 29.9 µM (not active).

Question: Which results are given for `C/C(=N\OC(=O)c1ccccc1)c1cc(-c2ccc(Cl)cc2)no1`?
Answer: EC50 (H4): 68.1 µM (active); AC50 (Cytochrome P450 2D6): inconclusive; EC50 [1]: 1.28 µM (active); EC50 [2]: < 100 nM (active); EC50 [3]: 1.04 µM (active); EC50 [4]: 4.74 µM (active); AC50 (Cytochrome P450 2C19): 22.4 µM (inconclusive)

Question: Which results are given for `Cc1ccc(C)c(NC(=S)NC(=O)c2cncc(Br)c2)c1`?
Answer: IC50 [5]: > 66 µM (inactive); EC50 [6]: 4.77 µM (active); IC50 [7]: > 66 µM (inactive)

Question: For `O=C(OCn1ncc(Br)c(Br)c1=O)c1c(F)cccc1F`, which IC50 [8] is on record?
Answer: Its IC50 is 888 nM (active).

Question: What about the IC50 [9] of the same compound?
Answer: The IC50 was 7.96 µM (active).

Question: What about the IC50 [10] of the same compound?
Answer: Its IC50 is 88.8 µM (not active).

Question: And the EC50 [11]?
Answer: The EC50 was 1.78 µM (active).

Question: And the EC50 [12]?
Answer: Its EC50 is 1.82 µM (active).

Question: What does the source list for `Cc1ccc(OCC(=O)c2c(N)n(C)c(=O)n(C)c2=O)c([N+](=O)[O-])n1`?
Answer: AC50 (Caspase-6): 18.9 µM (active); IC50 (Bcl-2-like protein 1): 21.3 µM (not active); IC50 [13]: 8.63 µM (active); IC50 (Albumin): > 94.1 µM (inactive)

Question: Which EC50 [14] does the source give for `C(=Nc1ncnc2sccc12)NOCc1ccccc1` here?
Answer: The EC50 was > 120 µM (not active).
